What was measured:
Test in all cases: Ambit KinomeScan screening
Type in all cases: binding
Conditions in all cases: CAL-130 10 μM
[1] = biological target: T1, EPHA7 (Homo sapiens, UniProt Q15375)
T1 construct: purchased Ambit (KinomeScan screening service)
Summary of the method: (§1)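 Single-concentration profiling (10 μM CAL-130) measured displacement of tagged kinases from an immobilized bait ligand. Percent-of-control binding was reported; smaller values denote stronger interaction.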

[2] = biological target: T2, WEE2 (Homo sapiens, UniProt P0C1S8)
T2 construct: purchased Ambit (KinomeScan screening service)
Summary of the method: as §1

[3] = biological target: T3, p38-α (Homo sapiens, UniProt Q16539)
T3 construct: purchased Ambit (KinomeScan screening service)
Summary of the method: as §1

[4] = biological target: T4, CLK1 (Homo sapiens, UniProt P49759)
T4 construct: purchased Ambit (KinomeScan screening service)
Summary of the method: as §1

[5] = biological target: T5, MAP3K4 (Homo sapiens, UniProt Q9Y6R4)
T5 construct: Ambit (KinomeScan screening)
Summary of the method: as §1

[6] = biological target: T6, CHEK1 (Homo sapiens, UniProt O14757)
T6 construct: purchased Ambit (KinomeScan screening service)
Summary of the method: as §1

[7] = biological target: T7, PCTK2 (Homo sapiens, UniProt Q00537)
T7 construct: unspecified tag ('tagged kinases'); purchased Ambit (KinomeScan screening)
Summary of the method: as §1

[8] = biological target: T8, ERK5 (Homo sapiens, UniProt Q13164)
T8 construct: unspecified tag ("tagged kinases"); purchased Ambit (KinomeScan screening service)
Summary of the method: as §1

[9] = biological target: T9, MYO3A (Homo sapiens, UniProt Q8NEV4)
T9 construct: unspecified tag; purchased Ambit (KinomeScan screening panel)
Summary of the method: as §1

[10] = biological target: T10, BMPR2 (Homo sapiens, UniProt Q13873)
T10 construct: unspecified tag ("tagged kinases"); purchased Ambit (KinomeScan screening)
Summary of the method: as §1

[11] = biological target: T11, MAP3K1 (Homo sapiens, UniProt Q13233)
T11 construct: Ambit (KinomeScan screening)
Summary of the method: as §1

[12] = biological target: T12, SIK2 (Homo sapiens, UniProt Q9H0K1)
T12 construct: tag, kind not specified; purchased Ambit (KinomeScan screening service)
Summary of the method: as §1

[13] = biological target: T13, PIK3CA (Homo sapiens, UniProt P42336)
T13 construct: unspecified tag; purchased Ambit (KinomeScan screening panel)
Summary of the method: as §1

[14] = biological target: T14, PHKG2 (Homo sapiens, UniProt P15735)
T14 construct: unspecified tag ('tagged kinases'); purchased Ambit (KinomeScan screening)
Summary of the method: as §1

[15] = biological target: T15, SRPK1 (Homo sapiens, UniProt Q96SB4)
T15 construct: tag, kind not specified; purchased Ambit (KinomeScan screening service)
Summary of the method: as §1

[16] = biological target: T16, SRPK3 (Homo sapiens, UniProt Q9UPE1)
T16 construct: purchased Ambit (KinomeScan screening service)
Summary of the method: as §1

[17] = biological target: T17, MLK1 (Homo sapiens, UniProt P80192)
T17 construct: unspecified tag ('tagged kinases'); purchased Ambit (KinomeScan screening)
Summary of the method: as §1

[18] = biological target: T18, AMPK-α1 (Homo sapiens, UniProt Q13131)
T18 construct: purchased Ambit (KinomeScan screening)
Summary of the method: as §1

[19] = biological target: T19, PIM2 (Homo sapiens, UniProt Q9P1W9)
T19 construct: unspecified tag; purchased Ambit (KinomeScan screening panel)
Summary of the method: as §1

[20] = biological target: T20, AXL (Homo sapiens, UniProt P30530)
T20 construct: purchased Ambit (KinomeScan screening service)
Summary of the method: as §1

[21] = biological target: T21, RIPK4 (Homo sapiens, UniProt P57078)
T21 construct: unspecified tag (tagged kinase); purchased Ambit (KinomeScan screening)
Summary of the method: as §1

[22] = biological target: T22, CAMK2B (Homo sapiens, UniProt Q13554)
T22 construct: purchased Ambit (KinomeScan screening)
Summary of the method: as §1

[23] = biological target: T23, MRCKB (Homo sapiens, UniProt Q9Y5S2)
T23 construct: unspecified tag ('tagged kinases'); purchased Ambit (KinomeScan screening)
Summary of the method: as §1

[24] = biological target: T24, RAF1 (Homo sapiens, UniProt P04049)
T24 construct: tag (kind not specified); purchased Ambit (KinomeScan screening service)
Summary of the method: as §1

[25] = biological target: T25, MEK4 (Homo sapiens, UniProt P45985)
T25 construct: purchased Ambit (KinomeScan screening)
Summary of the method: as §1

[26] = biological target: T26, STK33 (Homo sapiens, UniProt Q9BYT3)
T26 construct: purchased Ambit (KinomeScan screening service)
Summary of the method: as §1

[27] = biological target: T27, MEK3 (Homo sapiens, UniProt P46734)
T27 construct: purchased Ambit (KinomeScan screening)
Summary of the method: as §1

[28] = biological target: T28, TRKB (Homo sapiens, UniProt Q16620)
T28 construct: tag, kind not specified; purchased Ambit (KinomeScan screening service)
Summary of the method: as §1

[29] = biological target: T29, DYRK1B (Homo sapiens, UniProt Q9Y463)
T29 construct: unspecified tag ("tagged kinases"); purchased Ambit (KinomeScan screening service)
Summary of the method: as §1

[30] = biological target: T30, EPHA3 (Homo sapiens, UniProt P29320)
T30 construct: purchased Ambit (KinomeScan screening service)
Summary of the method: as §1

[31] = biological target: T31, ERK3 (Homo sapiens, UniProt Q16659)
T31 construct: unspecified tag ("tagged kinases"); purchased Ambit (KinomeScan screening service)
Summary of the method: as §1

[32] = biological target: T32, KIT(V559D, T670I) (Homo sapiens, UniProt P10721, T670I/V559D)
T32 construct: unspecified tag ('tagged kinases'); purchased Ambit (KinomeScan screening)
Summary of the method: as §1

[33] = biological target: T33, PRKD3 (Homo sapiens, UniProt O94806)
T33 construct: tag (kind not specified); purchased Ambit (KinomeScan screening service)
Summary of the method: as §1

T13 sequence (P42336 whole entry): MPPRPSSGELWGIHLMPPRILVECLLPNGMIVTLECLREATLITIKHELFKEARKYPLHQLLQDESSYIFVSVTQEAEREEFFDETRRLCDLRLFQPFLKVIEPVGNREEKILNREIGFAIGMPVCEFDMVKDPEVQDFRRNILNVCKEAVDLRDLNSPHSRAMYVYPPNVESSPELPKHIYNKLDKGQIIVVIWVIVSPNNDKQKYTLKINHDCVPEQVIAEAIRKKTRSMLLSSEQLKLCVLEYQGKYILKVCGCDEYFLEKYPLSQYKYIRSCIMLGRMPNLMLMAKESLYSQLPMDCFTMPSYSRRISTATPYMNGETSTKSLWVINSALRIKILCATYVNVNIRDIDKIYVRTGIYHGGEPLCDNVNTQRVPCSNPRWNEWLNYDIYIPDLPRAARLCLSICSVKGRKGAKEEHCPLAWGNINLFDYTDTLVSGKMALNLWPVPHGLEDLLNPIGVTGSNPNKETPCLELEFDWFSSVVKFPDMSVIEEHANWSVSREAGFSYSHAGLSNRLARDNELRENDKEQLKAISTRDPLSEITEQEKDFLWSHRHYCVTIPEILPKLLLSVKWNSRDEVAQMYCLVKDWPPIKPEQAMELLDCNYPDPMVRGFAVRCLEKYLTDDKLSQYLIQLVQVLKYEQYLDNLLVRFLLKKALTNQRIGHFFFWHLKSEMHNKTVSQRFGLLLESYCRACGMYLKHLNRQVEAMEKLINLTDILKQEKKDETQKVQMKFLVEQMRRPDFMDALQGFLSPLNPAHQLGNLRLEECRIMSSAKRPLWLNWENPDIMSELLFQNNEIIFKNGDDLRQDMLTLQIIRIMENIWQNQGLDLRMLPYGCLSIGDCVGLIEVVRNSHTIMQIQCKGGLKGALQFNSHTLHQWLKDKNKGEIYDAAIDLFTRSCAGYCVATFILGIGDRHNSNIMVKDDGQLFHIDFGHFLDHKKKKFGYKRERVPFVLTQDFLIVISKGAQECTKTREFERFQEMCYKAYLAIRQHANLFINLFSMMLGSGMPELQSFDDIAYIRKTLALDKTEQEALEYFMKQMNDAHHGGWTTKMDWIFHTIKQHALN
T25 sequence (P45985 whole entry): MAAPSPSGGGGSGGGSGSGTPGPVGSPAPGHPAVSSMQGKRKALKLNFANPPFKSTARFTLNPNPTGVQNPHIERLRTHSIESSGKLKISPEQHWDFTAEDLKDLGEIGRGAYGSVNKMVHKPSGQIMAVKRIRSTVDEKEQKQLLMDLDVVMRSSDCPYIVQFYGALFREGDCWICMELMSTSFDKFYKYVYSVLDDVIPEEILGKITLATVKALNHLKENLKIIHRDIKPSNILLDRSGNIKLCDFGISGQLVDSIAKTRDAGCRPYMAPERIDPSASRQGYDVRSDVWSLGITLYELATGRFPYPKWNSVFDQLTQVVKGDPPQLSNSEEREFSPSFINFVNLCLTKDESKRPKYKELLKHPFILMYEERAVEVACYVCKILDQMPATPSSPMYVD
T7 sequence (Q00537 whole entry): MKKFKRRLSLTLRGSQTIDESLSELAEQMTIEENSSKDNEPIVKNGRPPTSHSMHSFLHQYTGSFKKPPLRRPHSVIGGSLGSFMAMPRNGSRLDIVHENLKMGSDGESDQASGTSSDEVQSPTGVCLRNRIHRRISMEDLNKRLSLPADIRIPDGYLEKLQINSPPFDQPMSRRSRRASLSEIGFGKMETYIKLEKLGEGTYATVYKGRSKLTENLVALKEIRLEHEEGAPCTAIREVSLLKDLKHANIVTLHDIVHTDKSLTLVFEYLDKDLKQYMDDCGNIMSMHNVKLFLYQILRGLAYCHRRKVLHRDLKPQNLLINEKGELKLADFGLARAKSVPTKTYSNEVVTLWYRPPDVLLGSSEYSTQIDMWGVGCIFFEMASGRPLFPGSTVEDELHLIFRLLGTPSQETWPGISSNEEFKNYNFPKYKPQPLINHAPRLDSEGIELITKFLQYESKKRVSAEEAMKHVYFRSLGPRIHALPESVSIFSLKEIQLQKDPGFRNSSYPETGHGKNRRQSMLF
T22 sequence (Q13554 whole entry): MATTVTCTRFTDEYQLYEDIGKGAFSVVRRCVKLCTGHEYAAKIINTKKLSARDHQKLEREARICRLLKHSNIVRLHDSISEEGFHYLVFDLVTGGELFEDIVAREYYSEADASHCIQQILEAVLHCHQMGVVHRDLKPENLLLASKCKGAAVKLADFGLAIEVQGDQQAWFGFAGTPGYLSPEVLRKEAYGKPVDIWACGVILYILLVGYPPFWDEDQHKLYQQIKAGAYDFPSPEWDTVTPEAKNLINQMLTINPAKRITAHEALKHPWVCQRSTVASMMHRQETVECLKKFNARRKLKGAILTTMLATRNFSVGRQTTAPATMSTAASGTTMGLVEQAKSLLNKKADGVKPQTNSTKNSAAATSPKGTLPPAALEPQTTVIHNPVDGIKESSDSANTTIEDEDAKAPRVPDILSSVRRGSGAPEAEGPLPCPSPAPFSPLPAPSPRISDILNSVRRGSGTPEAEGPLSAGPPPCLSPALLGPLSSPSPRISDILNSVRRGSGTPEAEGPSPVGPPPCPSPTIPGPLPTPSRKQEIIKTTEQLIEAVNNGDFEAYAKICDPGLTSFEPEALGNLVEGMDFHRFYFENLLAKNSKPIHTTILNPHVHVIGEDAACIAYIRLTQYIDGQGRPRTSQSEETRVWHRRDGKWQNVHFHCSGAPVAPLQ
T27 sequence (P46734 whole entry): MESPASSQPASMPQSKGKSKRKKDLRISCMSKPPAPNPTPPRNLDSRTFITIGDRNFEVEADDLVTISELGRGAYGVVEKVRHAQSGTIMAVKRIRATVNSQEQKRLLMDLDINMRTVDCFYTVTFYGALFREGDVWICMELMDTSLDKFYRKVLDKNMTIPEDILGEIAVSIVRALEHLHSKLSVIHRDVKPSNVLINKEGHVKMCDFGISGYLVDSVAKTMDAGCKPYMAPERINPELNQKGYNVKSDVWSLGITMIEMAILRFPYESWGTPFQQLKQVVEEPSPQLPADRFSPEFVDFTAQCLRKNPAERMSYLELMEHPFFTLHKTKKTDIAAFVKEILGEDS
T11 sequence (Q13233 whole entry): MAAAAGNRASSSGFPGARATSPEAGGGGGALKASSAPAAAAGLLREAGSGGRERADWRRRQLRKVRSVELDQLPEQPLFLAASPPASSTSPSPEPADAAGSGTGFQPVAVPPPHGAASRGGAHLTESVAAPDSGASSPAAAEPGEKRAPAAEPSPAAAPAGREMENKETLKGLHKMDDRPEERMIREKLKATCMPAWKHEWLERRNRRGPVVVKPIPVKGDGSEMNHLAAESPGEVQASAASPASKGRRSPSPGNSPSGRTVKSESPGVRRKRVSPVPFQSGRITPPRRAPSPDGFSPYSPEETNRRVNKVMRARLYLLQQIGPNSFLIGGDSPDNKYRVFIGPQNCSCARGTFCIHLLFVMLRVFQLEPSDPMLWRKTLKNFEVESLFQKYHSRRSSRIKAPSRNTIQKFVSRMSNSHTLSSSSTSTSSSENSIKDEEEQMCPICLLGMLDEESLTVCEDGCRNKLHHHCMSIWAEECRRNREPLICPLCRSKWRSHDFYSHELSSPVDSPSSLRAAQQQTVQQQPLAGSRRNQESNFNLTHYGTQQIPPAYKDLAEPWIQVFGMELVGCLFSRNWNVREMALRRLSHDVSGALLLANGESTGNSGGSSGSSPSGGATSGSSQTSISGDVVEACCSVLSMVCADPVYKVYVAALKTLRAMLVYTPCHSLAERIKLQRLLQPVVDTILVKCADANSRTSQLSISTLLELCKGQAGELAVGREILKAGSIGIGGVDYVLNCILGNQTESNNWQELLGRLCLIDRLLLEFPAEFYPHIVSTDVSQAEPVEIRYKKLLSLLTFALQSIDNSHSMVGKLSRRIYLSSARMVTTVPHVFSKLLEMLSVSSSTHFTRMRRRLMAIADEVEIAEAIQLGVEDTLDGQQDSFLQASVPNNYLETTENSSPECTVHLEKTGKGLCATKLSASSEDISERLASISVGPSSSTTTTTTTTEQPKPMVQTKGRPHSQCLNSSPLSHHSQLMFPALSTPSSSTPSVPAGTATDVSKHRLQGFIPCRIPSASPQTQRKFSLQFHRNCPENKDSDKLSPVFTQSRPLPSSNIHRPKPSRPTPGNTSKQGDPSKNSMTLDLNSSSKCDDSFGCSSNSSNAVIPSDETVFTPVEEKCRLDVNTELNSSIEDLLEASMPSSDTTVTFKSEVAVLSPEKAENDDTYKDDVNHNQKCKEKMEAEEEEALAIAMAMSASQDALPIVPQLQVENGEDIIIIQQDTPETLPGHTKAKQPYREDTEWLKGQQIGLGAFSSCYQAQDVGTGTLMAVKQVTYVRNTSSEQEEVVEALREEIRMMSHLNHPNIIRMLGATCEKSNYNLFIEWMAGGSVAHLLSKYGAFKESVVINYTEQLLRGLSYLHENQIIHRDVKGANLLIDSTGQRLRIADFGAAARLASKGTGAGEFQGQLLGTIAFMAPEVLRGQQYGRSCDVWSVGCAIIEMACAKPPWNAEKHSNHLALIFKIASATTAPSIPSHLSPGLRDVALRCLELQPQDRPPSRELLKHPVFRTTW
T19 sequence (Q9P1W9 whole entry): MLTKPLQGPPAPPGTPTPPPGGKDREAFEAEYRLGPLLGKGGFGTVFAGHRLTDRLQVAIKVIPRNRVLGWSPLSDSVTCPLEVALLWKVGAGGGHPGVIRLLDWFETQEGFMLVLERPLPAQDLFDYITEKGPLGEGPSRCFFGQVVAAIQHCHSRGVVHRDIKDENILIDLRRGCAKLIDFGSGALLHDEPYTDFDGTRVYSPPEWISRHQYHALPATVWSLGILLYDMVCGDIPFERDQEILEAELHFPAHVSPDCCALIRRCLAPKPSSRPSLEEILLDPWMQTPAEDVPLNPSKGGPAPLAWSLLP

Cc1ccccc1-n1c(C(C)Nc2nc(N)nc3nc[nH]c23)nc2cccc(C)c2c1=O (stereo not shown) [CAL-130]
Percent of Control Binding [1]: 100% | Percent of Control Binding [2]: 100% | Percent of Control Binding [3]: 100% | Percent of Control Binding [4]: 100% | Percent of Control Binding [5]: 100% | Percent of Control Binding [6]: 100% | Percent of Control Binding [7]: 100% | Percent of Control Binding [8]: 100% | Percent of Control Binding [9]: 100% | Percent of Control Binding [10]: 100% | Percent of Control Binding [11]: 100% | Percent of Control Binding [12]: 100% | Percent of Control Binding ([13]; PI3KCA (Table 2)): 12% | Percent of Control Binding ([13]; PIK3CA (Table 1)): 12% | Percent of Control Binding [14]: 100% | Percent of Control Binding [15]: 100% | Percent of Control Binding [16]: 100% | Percent of Control Binding [17]: 100% | Percent of Control Binding [18]: 100% | Percent of Control Binding [19]: 100% | Percent of Control Binding [20]: 100% | Percent of Control Binding [21]: 100% | Percent of Control Binding [22]: 100% | Percent of Control Binding [23]: 100% | Percent of Control Binding [24]: 100% | Percent of Control Binding [25]: 100% | Percent of Control Binding [26]: 100% | Percent of Control Binding [27]: 100% | Percent of Control Binding [28]: 100% | Percent of Control Binding [29]: 100% | Percent of Control Binding [30]: 100% | Percent of Control Binding [31]: 100% | Percent of Control Binding [32]: 100% | Percent of Control Binding [33]: 100%

Reference: patent publication US11969428B2, “Methods and pharmaceutical compositions for treating lymphoid malignancy” (priority 2011, dated 2024)
